A word on the Ki: it is the dissociation constant of the complex between target and ligand, obtained from inhibition or displacement.

The target of experiment [1] is Somatostatin receptor type 3 (Homo sapiens, UniProt P32745).
For experiment [2], the target named is Somatostatin receptor type 1 (Homo sapiens, UniProt P30872).
Experiment [3] has as its target Somatostatin receptor type 2 (Homo sapiens, UniProt P30874).
The target of experiment [4] is Somatostatin receptor type 4 (Homo sapiens, UniProt P31391).
Chain of Somatostatin receptor type 4 (P31391 whole entry): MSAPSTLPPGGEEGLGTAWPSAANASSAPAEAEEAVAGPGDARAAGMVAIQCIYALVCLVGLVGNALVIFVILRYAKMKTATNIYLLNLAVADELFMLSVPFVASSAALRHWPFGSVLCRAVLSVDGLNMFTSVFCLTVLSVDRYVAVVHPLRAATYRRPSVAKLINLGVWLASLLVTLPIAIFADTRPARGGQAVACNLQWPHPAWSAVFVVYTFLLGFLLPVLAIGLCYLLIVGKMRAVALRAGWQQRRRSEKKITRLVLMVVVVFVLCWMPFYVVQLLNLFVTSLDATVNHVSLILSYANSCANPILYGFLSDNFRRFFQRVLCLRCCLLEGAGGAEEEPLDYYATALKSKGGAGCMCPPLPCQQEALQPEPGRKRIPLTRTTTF

Bridge positions count the residues as written; N and C are the ends. Square brackets hold non-standard residues; d marks the D form. Peptide text beside a SMILES is read from it. * marks the point of attachment. NH(1-naphthylmethyl) = c1ccc2c(CN*)cccc2c1; 1Nal = N[CH](Cc1cccc2ccccc12)C(=O)O; Thr(ol) = C[CH](O)[CH](N)CO

Chain of Somatostatin receptor type 2 (P30874 whole entry): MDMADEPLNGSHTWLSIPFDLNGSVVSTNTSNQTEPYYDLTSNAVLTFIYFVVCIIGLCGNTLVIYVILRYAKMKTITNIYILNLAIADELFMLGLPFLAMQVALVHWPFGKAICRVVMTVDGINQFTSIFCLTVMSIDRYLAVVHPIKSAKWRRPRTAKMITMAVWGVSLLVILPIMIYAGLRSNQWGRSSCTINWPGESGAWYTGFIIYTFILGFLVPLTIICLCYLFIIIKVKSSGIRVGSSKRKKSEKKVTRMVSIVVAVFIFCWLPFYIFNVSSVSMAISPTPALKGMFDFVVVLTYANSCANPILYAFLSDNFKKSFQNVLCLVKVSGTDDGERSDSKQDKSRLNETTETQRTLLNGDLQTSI
Chain of Somatostatin receptor type 1 (P30872 whole entry): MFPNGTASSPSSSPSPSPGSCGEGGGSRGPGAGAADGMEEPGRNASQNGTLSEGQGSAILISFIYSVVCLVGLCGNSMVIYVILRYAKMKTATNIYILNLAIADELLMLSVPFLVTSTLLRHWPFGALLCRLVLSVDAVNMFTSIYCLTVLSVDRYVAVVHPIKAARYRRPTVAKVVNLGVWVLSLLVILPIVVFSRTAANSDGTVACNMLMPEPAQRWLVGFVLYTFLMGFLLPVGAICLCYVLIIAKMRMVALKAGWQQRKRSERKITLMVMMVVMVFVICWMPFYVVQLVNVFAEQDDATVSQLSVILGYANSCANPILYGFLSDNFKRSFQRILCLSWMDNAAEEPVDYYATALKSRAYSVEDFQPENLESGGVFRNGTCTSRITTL
Chain of Somatostatin receptor type 3 (P32745 whole entry): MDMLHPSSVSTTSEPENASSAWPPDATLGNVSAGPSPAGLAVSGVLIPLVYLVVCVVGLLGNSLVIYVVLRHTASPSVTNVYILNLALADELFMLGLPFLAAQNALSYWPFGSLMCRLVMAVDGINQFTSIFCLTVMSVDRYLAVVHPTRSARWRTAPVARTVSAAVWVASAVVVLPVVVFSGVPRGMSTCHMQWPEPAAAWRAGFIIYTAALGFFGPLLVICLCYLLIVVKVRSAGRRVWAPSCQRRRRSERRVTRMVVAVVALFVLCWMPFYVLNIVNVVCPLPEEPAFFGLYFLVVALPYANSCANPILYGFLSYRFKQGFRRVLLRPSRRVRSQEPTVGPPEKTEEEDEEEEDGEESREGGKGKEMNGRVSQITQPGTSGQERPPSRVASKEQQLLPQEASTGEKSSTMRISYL

`CC(C)C1NC(=O)C(CCCCN)NC(=O)C(Cc2c[nH]c3ccccc23)NC(=O)C(Cc2ccc(O)cc2)NC(=O)C(NC(=O)C(N)Cc2cccc3ccccc23)CSSCC(C(=O)NC(CO)C(C)O)NC1=O` (configuration not stated) [DC23-60] (H-[1Nal]CYWKVC[Thr(ol)]; disulfide 2-7; configuration not given here): the Ki in experiment [1] came to 73 nM; in experiment [2], 70.4 nM; in experiment [3], 0.26 nM; in experiment [4], 1000 nM.

Consider `CC(C)C[C@H](NC(=O)[C@H](C)NC(=O)[C@@H]1CCCN1C(=O)[C@H](CC(N)=O)NC(=O)[C@H](CO)NC(=O)[C@H](CC(N)=O)NC(=O)[C@H](C)NC(=O)[C@@H](N)CO)C(=O)N[C@@H](C)C(=O)N1CCC[C@H]1C(=O)N[C@@H](CCCN=C(N)N)C(=O)N[C@@H](CCC(=O)O)C(=O)N[C@@H](CCCN=C(N)N)C(=O)N[C@@H](CCCCN)C(=O)N[C@@H](C)C(=O)NCC(=O)N[C@H]1CSSC[C@@H](C(=O)O)NC(=O)[C@H](CO)NC(=O)[C@H]([C@@H](C)O)NC(=O)[C@H](Cc2ccc(O)cc2)NC(=O)[C@H]([C@@H](C)O)NC(=O)[C@H](CCCCN)NC(=O)[C@@H](Cc2c[nH]c3ccccc23)NC(=O)[C@H](Cc2ccccc2)NC(=O)[C@H](Cc2ccccc2)NC(=O)[C@H](CC(N)=O)NC(=O)[C@H](CCCCN)NC1=O` [Leu8, D-Trp22, Tyr25 SST-28] (H-SANSNPALAPRERKAGCKNFF[dW]KTYTSC-OH; disulfide 17-28), for which the Ki in experiment [1] was 0.16 nM; in experiment [2], 0.41 nM; in experiment [3] it was 0.18 nM; in experiment [4] it was 0.03 nM.

Turning to `NCCCCC1NC(=O)C(Cc2c[nH]c3ccccc23)NC(=O)C(Cc2ccc(O)cc2)NC(=O)C(NC(=O)C(N)Cc2ccccc2)CSSCC(C(=O)NCc2cccc3ccccc23)NC(=O)C(CO)NC1=O` (configuration not stated) [NC4-28B] (H-FCYWKSC-{NH(1-naphthylmethyl)}; disulfide 2-7; configuration not given here), the Ki in experiment [1] stood at 8.9 nM; in experiment [2], 37.4 nM; in experiment [3], 4.4 nM; in experiment [4], 195 nM.

For the origin of these results see BindingDB's records for doi:10.1210/endo.135.6.7988476 (Mcgill University, 1994).
